Measurements from patent publication US7399493B2, “Anti-irritant botanicals” (priority 2004, dated 2008).

How the values were obtained:
[1] = tested on: irritating action of alpha-hydroxy acids (lactic and glycolic acids); conditions: Rosmarinic acid 5%; cited from earlier work
HaCat keratinocytes = experiment: Retinoid-stimulated autocrine (RSA) clonal growth assay; assay type: cell-based, human; conditions: 10 μM, 48 hours after treatment, relative to untreated control
Description: Since retinoids irritate skin leading to epidermal hyperplasia, it is the inventors idea that plant extracts that act as inhibitors of retinoid -stimulated autocrine growth are themselves anti-irritants. This hypothesis was tested using an in vitro keratinocyte culture model.
An immortalized line of human epidermal kertatinocytes, HaCat keratinocytes, can be cultured in a serum-free culture medium. Sterile Petri dishes (35 mm^2) are seeded at 5,000 cells per cm^2 and placed in a humidified CO2 incubator at 37° C. for 3-5 days or until the culture reaches about 30% confluent monolayer growth. The dishes are washed once with ice-cold serum-free media lacking EGF and insulin, and refed 2.5 ml of serum-free culture medium containing 5 ug/ml insulin and retinyl acetate (RA, 3×10^−8 M).—Duplicate control dishes are fixed and stained with 0.2% crystal violet to record the—amount of clonal growth prior to refeeding with fresh RA-containing medium. Test—dishes refed RA and insulin are split into three groups in duplicate. Group A is refed on the RA plus insulin medium. Group B is refed RA plus insulin medium and a TRK inhibitor (PD 15356), and Group C is refed medium containing RA plus insulin and from 0.1 to 5% of a hydroalcoholic botanical extract. All dishes are adjusted to have the same final concentration of alcohol (1%). All dishes are placed back in the incubator for 2 and 4 days. […]

SMILES	reduction of the irritating action of alpha-hydroxy acids [1]	inhibition of RSA clonal growth (HaCat keratinocytes)
O=C(/C=C/c1ccc(O)c(O)c1)O[C@H](Cc1ccc(O)c(O)c1)C(=O)O [Rosmarinic acid]	reduce by more than three-fold	–
O.O.O=c1c(O)c(-c2ccc(O)c(O)c2)oc2cc(O)cc(O)c12 [quercetin dihydrate]	–	completely inhibited
